{
  "source": "paper PMC10798532",
  "about": "“Enhanced catalytic performance of penicillin G acylase by covalent immobilization onto functionally-modified magnetic Ni0.4Cu0.5Zn0.1Fe2O4 nanoparticles” (PLOS ONE, 2024)",
  "system": "T1, Penicillin G acylase (PGA)",
  "T1 construct": "gene pac; alpha and beta subunits arise from one precursor; E. coli is only a guess (docking used PDB 1GM8)",
  "assay": "initial hydrolysis rates, Lineweaver-Burk; 6-APA by PDAB colorimetry at […] nm",
  "assay_type": "biochemical",
  "conditions": "free enzyme; 20 °C; PBS, pH of kinetic run not printed (optimum pH 8.0); substrate 0.01-0.05 mol/L",
  "note": "Structures can show the parent of a compound that is named as a salt.",
  "data": [
    {"compound": "CC1(C)S[C@@H]2[C@H](NC(=O)Cc3ccccc3)C(=O)N2[C@H]1C(=O)O", "note": "[Penicillin G potassium salt]", "values": [
      {"measurement": "Km", "result": 22.7, "unit": "mM"}
    ]}
  ]
}
